Data taken from PMC10398414, “Isolation and characterization of β-transducin repeat-containing protein ligands screened using a high-throughput screening system” (Oncology Research, 2023).

Tests used:
SCF^β-TrCP1 = SCF^β-TrCP1 (Homo sapiens, UniProt Q9Y297); test: In vitro ubiquitination assay (GST-Wee1KR substrate, immunoblotting); format: biochemical; settings: immunoblots quantitated by ImageJ
Description: Components of SCF complex (SKP1, Cul1, Rbx1, and hemagglutinin (HA)-tagged β-TrCP) were expressed in HEK293T cells. Anti-HA antibody was added into the SCF complexes expressed HEK 293T cell lysate and rotated at 4°C for 1 h. Aliquots of this mixture were added to protein G beads and rotated at 4°C for 30 min. After washing the beads in cell lysis buffer three times, the tube was centrifuged at 20,400 × g for 5 min and the supernatant was discarded. The protein on the beads was used as recombinant SCF^β-TrCP complexes. Aliquots of SCF complexes bound on the beads were then added to ubiquitination reactions (10 mM Tris pH = 7.5, 5 mM MgCl2, 1 mM DTT, 1 mM ATP, 20 mM creatine phosphate, 0.1 mg/mL creatine kinase, 5 mM NaF, 1 mM Na3VO4, 2 mg/mL ubiquitin, 0.5 μg E1 enzyme, 2 μg E2 enzyme) in a final volume of 30 µL. Compounds of 100 µM final concentration were added to reactions, and GST-Wee1KR was added as substrate 15 min later. The reaction mixtures were incubated at 37°C for 2 h and were further examined by immunoblotting.
Immunoblotting followed by in vitro ubiquitination assay was performed using anti-human Wee1A [30]. Immunoblotting in the analysis of protein degradation was performed using anti-phospho-β-catenin (Ser33/37/Thr41) antibody (1:1000, Cell Signaling Technology, Danvers, MA, USA), anti-phospho-IκBα (Ser32) (14D4), Rabbit mAb (1:1000, Cell Signaling Technology), anti-β-catenin (D10A8) (1:1000, Cell Signaling Technology), anti-IκBα antibody (1:1000, Cell Signaling Technology), and Goat polyclonal anti-rabbit IgG antibody (1:5000, Proteintech, Am Klopferspitz, Planegg-Martinsried, Germany). The transferred membrane was incubated with specific antibody, then detected using Super Signal West Pico chemiluminescent substrate (Thermo Fisher Scientific) and FUSION SOLO S (VILBER LOURMAT/MS equipment, Zi Sud torcy, Marne-la-vallee, France). The quantification of immunoblotting results was performed using ImageJ software.

[1] = tested on: NF-κB transcription activity in HeLa cells; test: NF-κB luciferase reporter assay (pGL-4.32), TNF-α induced; format: cell-based
Description: For NF-κB transcription activity, PGL-4.32 contains five copies of the NF-κB response element, which is responsible for the transcription of the luciferase reporter gene, with pRL-SV40 as the internal control. NF-κB transcription activity was determined by firefly luciferase expression and normalized by renilla luciferase level. pGL-4.32 reporter plasmids (Promega) and pRL-sv40 renilla luciferase reporter (Promega) were co-transfected into HeLa cells using Lipofectamine 3000 reagent kit. Subsequently, 24 h after transfection, cells were cultured with the compounds of different dilutions for another 24 h. Furthermore, TNF-α was added, and the plates were cultured for another 4 h. The cells were lysed, and the luminescence was measured using the Luciferase Assay System. A minimum of three samples were taken for each sample.

SKP2 = SKP2 (Homo sapiens, UniProt Q13309); test: Binding to SKP2 (data not shown)
polo-box domain of Plk1 = polo-box domain of Plk1 (Homo sapiens, UniProt P53350); test: Binding to polo-box domain of Plk1 (data not shown)
14-3-3 proteins = test: Binding to 14-3-3 proteins (data not shown)
Pin1 = Pin1 (Homo sapiens, UniProt Q13526); test: Binding to Pin1 (data not shown)
HeLa cells = test: Cytotoxicity / cell death; format: cell-based; settings: data not shown

polo-box domain of Plk1, sequence (P53350 326-603 limits assumed): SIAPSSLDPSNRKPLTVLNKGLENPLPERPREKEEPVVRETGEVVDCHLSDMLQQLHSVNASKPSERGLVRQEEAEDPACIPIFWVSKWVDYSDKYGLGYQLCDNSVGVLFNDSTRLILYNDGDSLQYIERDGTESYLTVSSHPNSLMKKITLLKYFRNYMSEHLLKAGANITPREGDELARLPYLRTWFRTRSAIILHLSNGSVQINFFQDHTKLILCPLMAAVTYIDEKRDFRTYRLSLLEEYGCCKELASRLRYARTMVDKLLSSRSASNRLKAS
SCF^β-TrCP1, sequence (Q9Y297 whole entry): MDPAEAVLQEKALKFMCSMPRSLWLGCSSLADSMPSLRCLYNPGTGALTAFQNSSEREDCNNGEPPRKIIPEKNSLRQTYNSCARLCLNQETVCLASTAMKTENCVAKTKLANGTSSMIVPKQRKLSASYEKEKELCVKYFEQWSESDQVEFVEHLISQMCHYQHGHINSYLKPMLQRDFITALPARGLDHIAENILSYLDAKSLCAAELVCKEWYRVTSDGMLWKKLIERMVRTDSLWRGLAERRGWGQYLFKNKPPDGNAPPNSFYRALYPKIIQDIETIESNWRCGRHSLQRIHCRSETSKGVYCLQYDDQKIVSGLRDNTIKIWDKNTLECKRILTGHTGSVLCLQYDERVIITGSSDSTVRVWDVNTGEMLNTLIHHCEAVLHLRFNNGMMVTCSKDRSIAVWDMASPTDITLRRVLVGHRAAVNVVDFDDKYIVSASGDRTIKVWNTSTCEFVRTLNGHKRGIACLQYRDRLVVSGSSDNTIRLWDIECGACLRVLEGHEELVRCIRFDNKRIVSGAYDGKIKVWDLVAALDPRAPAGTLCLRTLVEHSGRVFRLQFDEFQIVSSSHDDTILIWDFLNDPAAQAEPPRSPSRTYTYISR
SCF^β-TrCP1, sequence (P63208 whole entry partner): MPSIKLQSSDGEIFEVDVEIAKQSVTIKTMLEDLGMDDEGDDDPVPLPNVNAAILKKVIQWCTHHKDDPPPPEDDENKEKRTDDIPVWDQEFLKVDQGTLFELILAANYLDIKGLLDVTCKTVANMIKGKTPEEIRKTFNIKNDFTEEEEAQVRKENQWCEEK
SCF^β-TrCP1, sequence (Q13616 whole entry partner): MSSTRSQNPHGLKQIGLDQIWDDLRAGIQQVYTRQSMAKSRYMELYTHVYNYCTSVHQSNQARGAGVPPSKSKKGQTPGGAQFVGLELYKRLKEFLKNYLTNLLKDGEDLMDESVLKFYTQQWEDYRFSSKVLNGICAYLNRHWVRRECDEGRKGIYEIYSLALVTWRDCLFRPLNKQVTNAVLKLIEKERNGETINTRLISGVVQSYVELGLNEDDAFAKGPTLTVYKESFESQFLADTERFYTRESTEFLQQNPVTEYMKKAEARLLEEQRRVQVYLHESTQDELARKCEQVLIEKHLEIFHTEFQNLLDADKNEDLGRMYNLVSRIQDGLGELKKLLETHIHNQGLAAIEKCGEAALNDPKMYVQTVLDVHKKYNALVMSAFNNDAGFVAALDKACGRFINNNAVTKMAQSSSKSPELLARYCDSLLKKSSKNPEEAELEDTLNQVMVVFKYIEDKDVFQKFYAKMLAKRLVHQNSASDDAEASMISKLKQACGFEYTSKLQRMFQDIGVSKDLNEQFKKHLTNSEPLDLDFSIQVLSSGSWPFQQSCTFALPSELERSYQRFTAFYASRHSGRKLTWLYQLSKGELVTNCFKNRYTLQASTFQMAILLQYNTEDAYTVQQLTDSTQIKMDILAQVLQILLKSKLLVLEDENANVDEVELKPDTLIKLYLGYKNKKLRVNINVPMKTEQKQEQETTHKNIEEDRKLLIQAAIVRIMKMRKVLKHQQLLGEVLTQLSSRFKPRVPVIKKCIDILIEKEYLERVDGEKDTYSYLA
SCF^β-TrCP1, sequence (P62877 whole entry partner): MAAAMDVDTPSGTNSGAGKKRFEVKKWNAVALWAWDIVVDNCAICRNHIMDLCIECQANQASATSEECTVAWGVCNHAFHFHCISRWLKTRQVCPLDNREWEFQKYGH
SKP2, sequence (Q13309 whole entry, species assumed, the tested form may be a part): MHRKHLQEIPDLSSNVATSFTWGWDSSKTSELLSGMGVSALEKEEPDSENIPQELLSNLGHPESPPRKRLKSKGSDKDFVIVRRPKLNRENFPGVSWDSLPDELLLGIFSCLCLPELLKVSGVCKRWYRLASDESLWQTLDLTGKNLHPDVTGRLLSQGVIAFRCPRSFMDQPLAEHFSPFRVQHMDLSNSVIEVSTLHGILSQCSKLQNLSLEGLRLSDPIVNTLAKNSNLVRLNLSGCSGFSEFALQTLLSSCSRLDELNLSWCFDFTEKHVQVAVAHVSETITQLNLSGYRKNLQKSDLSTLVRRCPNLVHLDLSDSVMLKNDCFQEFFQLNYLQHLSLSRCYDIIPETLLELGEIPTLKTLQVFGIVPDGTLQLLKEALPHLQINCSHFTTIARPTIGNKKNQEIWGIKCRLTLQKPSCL
Pin1, sequence (Q13526 whole entry, species assumed): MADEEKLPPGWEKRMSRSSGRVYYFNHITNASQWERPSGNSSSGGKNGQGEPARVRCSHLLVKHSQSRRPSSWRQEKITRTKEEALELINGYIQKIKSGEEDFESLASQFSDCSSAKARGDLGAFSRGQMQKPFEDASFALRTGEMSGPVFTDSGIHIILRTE

Cc1cc(O)c(C(=O)/C=C/c2cccc(O)c2)c(=O)o1 [NPD5943]
IC50 (SCF^β-TrCP1): 30 µM
NF-κB transcription, % of that of the control group (DMSO, TNF-α) ([1]; 20 μM): approximately 20%
TNF-α induced NF-κB activation of transcription ([1]; 24 h compound then TNF-α 4 h): reduced NF-κB activation dose-dependently
binding to SKP2 (SKP2): did not bind to SKP2 at all
binding to polo-box domain of Plk1 (polo-box domain of Plk1): did not observe any binding
binding to 14-3-3 proteins (14-3-3 proteins): did not observe any binding
binding to Pin1 (Pin1): did not observe any binding
non-specific cytotoxicity (HeLa cells): cytotoxicity only at high concentration
